Reference: US20030017976A1, “Therapeutic properties of liposome-encapsulated immunomodulators” (priority 1998, published 2003)
Where “and” joins values, the source holds several entries; their conditions need not be identical. Equal values may be shown once. Read-outs that look alike come from different tables or passages of the source. Marks after values point to notes of the source that are not given here.

Tests used:
CT-26P colon carcinoma = experiment: Combination therapy of CT-26P colon carcinoma with CPT-11 and oral liposomal JBT3002; assay type: in vivo, mouse; conditions: day 17; for Liver Weights, mean / Liver Weights, single mice: alone or + oral liposomal JBT3002 1 μg/dose
Method: This course of therapy was repeated weekly for about three weeks prior to tissue harvest. Experimental Groups/Procedures: 40 Balb/c mice were divided into 8 groups of 5 mice each. On day 0, the spleens of the mice were injected with 15,000 cultured CT-26P cells. The groups were then treated as follows: The spleens of Balb/c mice were injected with 15,000 cultured CT-26P colon carcinoma cells on day 0. […] Treated mice received two weeks of chemotherapy and three weeks of the macrophage activator. Tissues were harvested on day 17. The spleens and livers were weighed, the extent of metastasis was graded (denoted below) and histology prepared.

IL-15 = experiment: Ileum and liver lesion histology, BrdUrd and IL-15 expression after JBT 3002 and CPT-11; assay type: in vivo, mouse
Method: BALB/c mice were injected with CT-26 colon cancer cells into the spleen. […] Four days after the last injection of CPT-11, some mice were killed and their ileum was harvested and prepared for histology, immunohistochemistry, and molecular biology analyses.

CT-26 colon carcinoma = experiment: Therapy of experimental liver metastasis of CT-26 colon carcinoma with CPT-11 and oral JBT 3002
[1] = Body weight change and deaths during therapy of CT-26 bearing BALB/c mice; assay type: in vivo, mouse
C57BL/6 mice [2] = experiment: Prevention of CPT-11 induced intestinal damage and morbidity by oral immunomodulator; assay type: in vivo, mouse; conditions: for Death / Morbidity: 4 daily i.p., oral saline or free-form MTP-PE 100 ug/dose for one week before
Method: Experimental Design and Methods. […] Tissue was harvested 7 days after the last injection (small intestine and colon distal to the cecum). Histology was prepared. Some mice were monitored for the presence of drug toxicity.
Example 6 has shown that 100, 150, and 200 mg/kg at 4 consecutive i.p. administrations are highly toxic to C57BL/6 mice.

[3] = system: L3.6pl human pancreatic tumors; experiment: Therapy of L3.6pl human pancreatic tumors in nude mice; assay type: in vivo, mouse; conditions: CPT-11 100 mg/kg i.p. once a week +/− oral JBT 3002 (tablet) 0.05 mcg/dose
Method: Table 19 (A, B, C). Therapy of human pancreatic carcinoma liver metastasis. The pancreas of nude mice were injected with 1×10^6 viable human pancreatic cancer L3.6pl cells. […] This regimen was repeated on a weekly basis for 3 weeks. The mice were killed. Pancreatic tumors, liver metastases, and lymph node metastasis were quantified.

C57BL/6 mice [4] = system: C57BL/6 mice
[5] = system: CT-26 colon cancer liver metastasis; experiment: Combination therapy of MTP-PE and CPT-11 for CT-26 colon cancer liver metastasis
[6] = Table 10, oral MLV-HBSS, CPT-11 100 mg/kg i.p. once a week, day 23
[7] = Table 11, CPT-11 100 mg/kg i.p. once a week alone, day 24
[8] = Table 12, oral MLV-HBSS, CPT-11 100 mg/kg 4 daily i.p. (intensive), day 14
[9] = Table 13, oral MLV-HBSS, CPT-11 100 mg/kg i.p. once a week, day 23
[10] = Table 14, MLV-JBT 3002 1.0 μg/dose or FF-JBT 3002 0.05 μg/dose oral 3 days, CPT-11 100 mg/kg 4 daily i.p., day 21
[11] = Table 15, oral JBT 3002 0.05 μg/dose 3 consecutive days and/or CPT-11 100 mg/kg 4 daily i.p., day 21
[12] = Table 16, oral JBT3002 0.05 μg dose thrice weekly 3 weeks and/or CPT-11 100 mg/kg i.p. once a week, day 24
[13] = CPT-11 50 mg/kg, oral saline or MTP-PE

## CCc1c2c(nc3ccc(OC(=O)N4CCC(N5CCCCC5)CC4)cc13)-c1cc3c(c(=O)n1C2)COC(=O)[C@]3(O)CC [CPT-11, Irinotecan]
CT-26P colon carcinoma; CPT-11 25 mg/kg once a week, alone or + oral JBT3002 1 μg/dose in PC liposomes 3x/week
  Spleen Weights, mean: 1.284 ± 0.257 grams
CT-26P colon carcinoma; CPT-11 25 mg/kg once a week, alone or + oral JBT3002 1 μg/dose in PC liposomes 3x/week, 25 mg/kg
  Spleen Weights, single mice: 1.486 grams and 0.888 grams and 1.056 grams and 1.588 grams and 1.403 grams
CT-26P colon carcinoma; CPT-11 25 mg/kg once a week
  Liver Weights, mean: 1.670 ± 0.301 grams
CT-26P colon carcinoma; CPT-11 25 mg/kg once a week, 25 mg/kg
  Liver Weights, single mice: 1.416 grams and 1.460 grams and 2.246 grams
CT-26P colon carcinoma; CPT-11 50 mg/kg once a week, alone or + oral JBT3002 1 μg/dose in PC liposomes 3x/week
  Spleen Weights, mean: 0.746 ± 0.561 grams
CT-26P colon carcinoma; CPT-11 50 mg/kg once a week, 50 mg/kg
  Liver Weights, single mice: 1.407 grams and 1.205 grams and 1.525 grams
CT-26P colon carcinoma; CPT-11 100 mg/kg once a week, alone or + oral JBT3002 1 μg/dose in PC liposomes 3x/week
  Spleen Weights, mean: 0.216 ± 0.110 grams
CT-26P colon carcinoma; CPT-11 100 mg/kg once a week
  Liver Weights, mean: 1.203 ± 0.065 grams
CT-26P colon carcinoma; CPT-11 100 mg/kg once a week, 100 mg/kg
  Liver Weights, single mice: 1.105 grams and 1.252 grams and 1.172 grams and 1.293 grams and 1.196 grams
IL-15; CPT-11 100 mg/kg, JBT 3002 0.05 μg/dose
  intestinal architecture of ileum (H&E): produces disruption of the intestinal architecture
IL-15; mouse, in vivo
  expression of IL-15 in the ileum: significant decrease in expression of IL-15
CT-26 colon carcinoma; [6]
  Liver metastasis Incidence: 5/5
  Liver weight: 1.8 ± 0.3^b g
  Spleen (primary) Incidence: 5/5
CT-26 colon carcinoma; [7]
  Liver metastasis Incidence: 5/5
  Liver weight: 1.7 ± 0.3^c g
  Spleen (primary) Incidence: 5/5
CT-26 colon carcinoma; [8]
  Liver metastasis Incidence: 2/5
  Liver weight: 1.2 ± 0.1 g
  Spleen (primary) Incidence: 5/5
CT-26 colon carcinoma; [9]
  Liver metastasis Incidence: 5/5
  Liver weight: 2.6 ± 0.3 g
  Spleen (primary) Incidence: 5/5
CT-26 colon carcinoma; [10]
  Liver metastasis Incidence: 0/5^b
  Liver weight: 1.2 ± 0.2 g
  Spleen tumor Incidence: 5/5^b
CT-26 colon carcinoma; [11]
  Liver metastasis Incidence: 1/10^b
  Liver weight: 1.9 ± 0.3^c,d g
  Spleen tumor Incidence: 6/10^b
CT-26 colon carcinoma; [12]
  Liver metastasis Incidence: 8/10
  Liver weight: 2.0 ± 0.9^c g
  Spleen tumor Incidence: 7/10
[1]; [6]
  ΔBW: −1.7%
[1]; [7]
  ΔBW: −1.5%
[1]; [8]
  ΔBW: −17.6%
[1]; [9]
  ΔBW: 1.2%
[1]; Table 14, MLV-JBT 3002 1.0 μg/dose or FF-JBT 3002 0.05 μg/dose oral 3 days, CPT-11 100 mg/kg 4 daily i.p., day not given
  ΔBW: −24.0%
[1]; Table 15, CPT-11 100 mg/kg 4 daily i.p. alone, 10 mice, 100 mg/kg
  Mice that died during therapy: 7 of 10
C57BL/6 mice [2]; CPT-11 100 mg/kg
  Death: 0/10
  Morbidity: 8/10
C57BL/6 mice [2]; CPT-11 100 mg/kg, oral MTP-PE 100 μg/dose three consecutive days per week, C57BL/6 mice
  damage to intestinal tissue: induces loss of structural integrity of duodenal and large colon crypts
C57BL/6 mice [2]; CPT-11 150 mg/kg
  Death: 6/10
  Morbidity: 10/10
C57BL/6 mice [2]; CPT-11 200 mg/kg
  Death: 9/10
  Morbidity: 10/10
C57BL/6 mice [2]; oral PBS or MTP-PE 100 μg/dose 3×/week for 3 weeks, then 4 i.p. injections of CPT-11
  GI toxicity (histology of intestinal villi and lumen): severe damage to the intestinal villi and lumen
C57BL/6 mice [2]; oral saline or JBT3002 0.1, 1.0 and 10 μg/dose in PC liposomes, then CPT-11 100 mg/kg i.p. 4 days
  intestinal toxicity (histology): induced severe toxicity
[3]; 31 days
  Incidence LN met: 7/10
  Incidence WT/PC: 0/10
  Incidence liver met: 0/10
  Tumor weight, Average: 152.10 mg
  Tumor weight, Max: 375 mg
  Tumor weight, Median: 117.5 mg
  Tumor weight, Min: 0 mg
  tumor weight (range): (0-375) mg
[3]; 31 days after tumor cell injection, 100 mg/kg
  Tumor weight, single animals: 80 mg and 375 mg and 241 mg and 0 mg (2×) and 98 mg and 318 mg and 137 mg and 205 mg and 67 mg
C57BL/6 mice [4]; 100 mg/kg CPT-11 i.p. Day 1-4, C57BL6 mice
  Survival: 5/5
C57BL/6 mice [4]; 150 mg/kg CPT-11 i.p. Day 1-4, C57BL6 mice
  Survival: 3/5
C57BL/6 mice [4]; 200 mg/kg CPT-11 i.p. Day 1-4, C57BL6 mice
  Survival: 0/5
C57BL/6 mice [4]; CPT-11 50, 75 or 100 mg/kg once a day for 4 days (i.p.)
  deaths: None of the injected mice died
C57BL/6 mice [4]; i.p. Day 1-4, C57BL6 mice
  lethal dose: 200 mg/kg
[5]; [13]
  Liver Median no. metastases: 30
  Liver weight: 2.0 ± 0.3
  Spleen Tumor size: 8.3 ± 2.0 mm
  Spleen Weight: 0.6 ± 0.2 g
[5]; CPT-11 100 mg/kg, oral saline
  Death of mice: ------------------All mice died.------------------------
[5]; CPT-11 25-100 mg/kg, CT-26P injected into the spleen
  tumor burden of the liver: dose-dependent reduction in tumor burden of the liver
